Experimental findings from patent US20100324072A1, “PYRROLOPYRIDINE DERIVATIVES AND THEIR USE AS BACE INHIBITORS” (ASTRAZENECA AB, priority 2007, published 2010) are described below.

In general, Ki refers to the dissociation constant of the complex between target and ligand, obtained from inhibition or displacement.

This assay has as its target T1, human β-Secretase (Homo sapiens, UniProt P56817).
T1 construct: The soluble part of the human β-Secretase (AA 1-AA 460) was cloned; Fc domain of IgG1 (C); made in house
Briefly: TR-FRET assay (β-secretase enzyme cleavage of (Europium)CEVNLDAEFK(Qsy7) substrate). The format is biochemical. The note with it: sBACE-Fc 2.7 μg/ml, substrate 100 nM, pH 4.5, 15 min at RT. As to the method: The enzyme used in the IGEN Cleavage-, Fluorescent-, TR-FRET- and BiaCore assays is described as follows:
The soluble part of the human β-Secretase (AA 1-AA 460) was cloned into the ASP2-Fc10-1-IRES-GFP-neoK mammalian expression vector. The gene was fused to the Fc domain of IgG1 (affinity tag) and stably cloned into HEK 293 cells. Purified sBACE-Fc is stored in Tris buffer, pH 9.2 and has a purity of 95%.
Enzyme was diluted to 6 μg/mL and the substrate (Europium)CEVNLDAEFK(Qsy7) to 200 nM in reaction buffer (NaAcetate, chaps, triton x-100, EDTA pH 4.5). Compounds were diluted to the desired concentration in dimethyl sulfoxide (final dimethyl sulfoxide concentration in assay is 5%). The assay was done in a Costar 384 well round bottom, low volume, non-binding surface plate (Corning #3676). Enzyme (9 μL) and 1 μL of compound in dimethyl sulfoxide was added to the plate, mixed and pre-incubated for 10 min. Substrate (10 μL) was added and the reaction proceeded in the dark for 15 min at RT. The reaction was stopped with the addition of 7 μl, NaAcetate, pH 9. The fluorescence of the product was measured on a Victor II plate reader with an excitation wavelength of 340 nm and an emission wavelength of 615 nm. The final concentration of the enzyme was 2.7 μg/ml and the final concentration of the substrate was 100 nM (Km of 290 nM). […]

T1 sequence (P56817 22-460): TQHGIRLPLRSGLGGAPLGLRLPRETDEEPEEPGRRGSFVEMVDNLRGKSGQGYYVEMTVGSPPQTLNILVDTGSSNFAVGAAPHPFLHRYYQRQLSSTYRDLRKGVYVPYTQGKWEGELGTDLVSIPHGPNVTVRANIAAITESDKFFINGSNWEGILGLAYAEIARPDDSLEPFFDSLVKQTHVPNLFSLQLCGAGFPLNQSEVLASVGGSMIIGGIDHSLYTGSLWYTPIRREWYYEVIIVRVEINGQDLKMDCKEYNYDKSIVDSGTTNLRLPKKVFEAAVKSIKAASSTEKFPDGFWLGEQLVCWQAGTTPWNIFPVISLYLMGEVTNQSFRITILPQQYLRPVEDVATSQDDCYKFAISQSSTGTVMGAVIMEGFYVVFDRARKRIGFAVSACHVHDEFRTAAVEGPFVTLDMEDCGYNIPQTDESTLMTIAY

The compound `COc1cccc(-c2cccc(C3(c4ccncc4)N=C(N)c4cccnc43)c2)c1F` (stereo not shown) [Example 23, 7-(2′-Fluoro-3′-methoxybiphenyl-3-yl)-7-pyridin-4-yl-7H-pyrrolo[3,4-b]pyridin-5-amine] displayed a Ki of 88 nM.
